Legend:
Assay type in all cases: cell-based
[1] = tested on: GFP controlled by a tTA/rtTA responsive promoter; assay: rtTA dependent GFP fluorescence in S. cerevisiae; conditions: for basal activity (GFP fluorescence in the absence of inducer): excitation 490 nm, emission 512 nm
Text: Thus, a plasmid, designated pCM190GFP+, was constructed which contains the following elements: • the coding sequence for GFP controlled by a tTA/rtTA responsive promoter; • a tTA/rtTA encoding sequence that is constitutively expressed; • the URA3 marker that allows selection in appropriate yeast strains; • the replication function of the 2μ episome of S. cerevisiae. Unique endonuclease cleavage sites allow for the removal of the TetR, the activation domain, or the entire tTA encoding sequences, typically replaced by pools of mutagenized alleles obtained as described previously (Leung et al., 1989).
The gene encoding GFP was cloned into the multiple cloning site of pCM190 (Gari et al., 1997) to serve as an indicator of rtTA activity, yielding plasmid pCM190GFP+. The TetR portion of tTA was amplified for mutagenesis with two oligonucleotide primers, 5′-[…] (SEQ ID NO:46), and 5′-[…] (SEQ ID NO:47), from the vector pCM190 as described (Leung et al., 1989). The PCR-fragments and pCM190-GFP+ were restricted with XbalI and BsiWI and purified. The PCR-fragments and the vector were then ligated and transformed into E. coli DH5α. Several thousand E. coli clones were co-cultured, and their plasmid pools were prepared and transformed into S. cerevisiae using the LiAc-method (Ito et al., 1983). […]
Accordingly, the resulting uracil-prototroph yeast clones were replica plated on minimal medium without uracil containing either Tc and/or Dox and scored after growth for two to three days at 30° C. using long wavelength UV-light to excite GFP fluorescence. […] The GFP fluorescence is shown on a logarithmic scale on the left axis. Fluorescence intensities are shown for each transactivator in the absence of inducer, in the presence of 10 μg/ml of Tc, and/or in the presence of 10 μg/ml of Dox. […]
S. cerevisiae strains containing rtTA-34R, rtTA-44R and a GFP^31 strain, as well as strains containing the original tTA and rtTA were grown overnight in minimal medium. […] The light emission of these cells was scored in a fluorimeter using an excitation wavelength of 490 nm and recording emission at 512 nm. […]

[2] = tested on: luciferase gene controlled by Ptet; assay: rtTA-dependent luciferase expression in transiently cotransfected HeLa cells (pUHC13-3); conditions: for induction of luciferase activity compared to rtTA: 5 μg/ml Tc or Dox; for reverse phenotype: transient expression, luciferase
Protocol: rtTA-34R and rtTA-44R were then recloned into pUHD15-1 (Gossen & Bujard, 1992), replacing the respective portions of tTA. HeLa cells were transiently cotransfected with plasmids pUHC13-3, encoding the luciferase gene controlled by Ptet (Gossen & Bujard, 1992), and the pUHD15-1 plasmids containing the genes of the respective transactivators. Luciferase activities were measured in absence (light column) and presence of 5 μg/ml of the effectors tetracycline (Tc, light grey) or doxycycline (Dox, dark grey). On the X axis, (−) corresponds to control HeLa cells into which no DNA was transferred. […] The increased regulation factor observed results from both a lower basal and a higher induced activity.
To obtain additional information about the role of the mutated residues, we separated the mutations at positions 19 and 56 from those at 139, 148 and 179. The resulting proteins are called rtTA-1956R and rtTA-148179R. The activation potential of rtTA-1956R and rtTA-148179R was assessed in transient expression experiments. Plasmids encoding the respective rtTA variants were cotransfected with the pUHC13-3 luciferase indicator plasmid into HeLa cells and the luciferase activity was determined.

[3] = tested on: luciferase reporter construct pUHC13-3; assay: Doxycycline-dependent regulation of luciferase in HeLa cell lines stably producing the transactivator, reporter pUHC13-3 transiently transfected
Text: In order to generate cell lines that maintain the plasmid episomally and thus produce the transactivator over extended periods of time, the transcription unit containing the rtTA-34R coding sequence controlled by the hCMV promoter was inserted into […] (Invitrogen, Carlsbad, USA) from which the RSV promoter had been excised. […] HeLa cells were transfected with the plasmid pCEP4-rtTA-34R, and clones isolated via G418 selection. Clones stably producing the transactivator were selected and tested for their ability to activate transcription from the transiently transfected luciferase reporter construct pUHC13-3 in the presence and absence of Dox.
Upon addition of 5 μg/ml of Dox, luciferase activity is induced up to 600 fold. In comparison to the HeLa cell line HR5 harboring chromosomal copies of the rtTA gene (Gossen et al., 1995), the background level is reduced. […] This leads to a several hundred fold induction of gene expression in the case of the rtTA-34R clones whereas in HR5 cells rtTA achieves only a 20 to 30 fold induction under these conditions.

[4] = tested on: Ptet-luciferase expression unit; assay: Dox dependent luciferase activity in stably transfected HeLa cells (X1/6-34R-FFFF, HR5-CL11); conditions: X1/6-34R-FFFF or HR5-CL11
Text: The coding sequence of rTetR-34R was fused with a DNA encoding four minimal activation domains (FFFF)(Baron et al., 1997) by insertion into a proper pUHD vector to generate plasmid […]. HeLa cell line X1/6 was transfected with plasmid pUHrT5 1-1 carrying the rtTA-34R-FFFF gene under the control of PhCMv. The resulting HeLa cell line X1/6-34R-FFFF contains, in addition, the Ptet-luciferase expression unit in a “silent but activatable” locus.
Cell lines derived from various clones that contain pUHrT51-1 stably inserted into the genome where it is constitutively expressed were isolated via hygromycin-B selection and analyzed for Dox dependent luciferase activity. […] This is most likely due to the residual affinity between rtTA and tetO.

[5] = cell line HeLa 0.34R-16, episomal pCEP4-rtTA-34R
[6] = cell line HeLa 0.34R-33, episomal pCEP4-rtTA-34R
[7] = cell line HeLa 0.34R-36, episomal pCEP4-rtTA-34R
[8] = cell line HeLa HR5 (Tet on), chromosomal copies of the rtTA gene

rtTA-34R: rtTA sequence variant E19G, A56P, H139H (silent), D148E, H179R; aa = SEQ ID NO:2
basal activity (GFP fluorescence in the absence of inducer) [1]: clearly lower as compared to rtTA
induction of luciferase activity compared to rtTA [2]: even higher induction of luciferase activity as compared to rtTA
reverse phenotype [2]: improved reverse phenotype
induced level of luciferase in comparison to HR5 ([3]; 5 μg/ml of Dox, rtTA-34R HeLa clones): significantly elevated
induction of luciferase activity ([3]; 5 μg/ml of Dox, rtTA-34R HeLa clones, rtTA in HR5 cells): up to 600 fold
factor of induction ([3]; cell line HeLa 0.34R-16): 600
Luciferase activity (RLU/μg protein) with Dox [3, 5]: 540 ± 50 RLU/μg protein
Luciferase activity (RLU/μg protein) without Dox [3, 5]: 323600 ± 69470 RLU/μg protein
factor of induction ([3]; cell line HeLa 0.34R-33): 200
Luciferase activity (RLU/μg protein) with Dox [3, 6]: 360 ± 140 RLU/μg protein
Luciferase activity (RLU/μg protein) without Dox [3, 6]: 74620 ± 3230 RLU/μg protein
factor of induction ([3]; cell line HeLa 0.34R-36): 200
Luciferase activity (RLU/μg protein) with Dox [3, 7]: 430 ± 50 RLU/μg protein
Luciferase activity (RLU/μg protein) without Dox [3, 7]: 87000 ± 7820 RLU/μg protein
background level of luciferase in comparison to HR5 ([3]; without Dox, rtTA-34R HeLa clones): reduced

rtTA-44R: rtTA sequence variant T26A, D95G; aa = SEQ ID NO:13
basal activity (GFP fluorescence in the absence of inducer) [1]: clearly lower as compared to rtTA
induction of luciferase activity compared to rtTA [2]: not improved over rtTA
reverse phenotype [2]: shows a reverse phenotype

rtTA-1956R: rtTA sequence variant E19G, A56P; aa = SEQ ID NO:7
reverse phenotype [2]: sufficient for the reverse phenotype

rtTA: original reverse tetracycline controlled transactivator (Gossen et al., 1995), parent, SEQ ID NO: 22/23 [reference compound]
induction factor of expression ([1]; GFP fluorescence, Tc or Dox 10 μg/ml): 40 fold
factor of induction ([3]; cell line HeLa HR5 (Tet on)): 27
Luciferase activity (RLU/μg protein) with Dox [3, 8]: 920 ± 170 RLU/μg protein
Luciferase activity (RLU/μg protein) without Dox [3, 8]: 26400 ± 4030 RLU/μg protein
induction of luciferase activity by Dox [4]: about 700 fold
luciferase activity in the absence of Dox [4]: significant background luciferase activity

— patent US7541446B2, “Tet repressor-based transcriptional regulatory proteins” (Tet Systems Holding GmbH & Co. KG, priority 1999, dated 2009)
